# From ChEMBL document CHEMBL5036349, “Development of potent dual PDK1/AurA kinase inhibitors for cancer therapy: Lead-optimization, structural insights, and ADME-Tox profile” (Eur J Med Chem, 2021)
# Tests used:
# [1] = biological target: T1, Protein deacetylase HDAC6 (Homo sapiens) (UniProt Q9UBN7); assay: Inhibition on human recombinant HDAC6 at 10 uM measured after 20 min by luminescence glo assay
# T1 sequence (whole entry): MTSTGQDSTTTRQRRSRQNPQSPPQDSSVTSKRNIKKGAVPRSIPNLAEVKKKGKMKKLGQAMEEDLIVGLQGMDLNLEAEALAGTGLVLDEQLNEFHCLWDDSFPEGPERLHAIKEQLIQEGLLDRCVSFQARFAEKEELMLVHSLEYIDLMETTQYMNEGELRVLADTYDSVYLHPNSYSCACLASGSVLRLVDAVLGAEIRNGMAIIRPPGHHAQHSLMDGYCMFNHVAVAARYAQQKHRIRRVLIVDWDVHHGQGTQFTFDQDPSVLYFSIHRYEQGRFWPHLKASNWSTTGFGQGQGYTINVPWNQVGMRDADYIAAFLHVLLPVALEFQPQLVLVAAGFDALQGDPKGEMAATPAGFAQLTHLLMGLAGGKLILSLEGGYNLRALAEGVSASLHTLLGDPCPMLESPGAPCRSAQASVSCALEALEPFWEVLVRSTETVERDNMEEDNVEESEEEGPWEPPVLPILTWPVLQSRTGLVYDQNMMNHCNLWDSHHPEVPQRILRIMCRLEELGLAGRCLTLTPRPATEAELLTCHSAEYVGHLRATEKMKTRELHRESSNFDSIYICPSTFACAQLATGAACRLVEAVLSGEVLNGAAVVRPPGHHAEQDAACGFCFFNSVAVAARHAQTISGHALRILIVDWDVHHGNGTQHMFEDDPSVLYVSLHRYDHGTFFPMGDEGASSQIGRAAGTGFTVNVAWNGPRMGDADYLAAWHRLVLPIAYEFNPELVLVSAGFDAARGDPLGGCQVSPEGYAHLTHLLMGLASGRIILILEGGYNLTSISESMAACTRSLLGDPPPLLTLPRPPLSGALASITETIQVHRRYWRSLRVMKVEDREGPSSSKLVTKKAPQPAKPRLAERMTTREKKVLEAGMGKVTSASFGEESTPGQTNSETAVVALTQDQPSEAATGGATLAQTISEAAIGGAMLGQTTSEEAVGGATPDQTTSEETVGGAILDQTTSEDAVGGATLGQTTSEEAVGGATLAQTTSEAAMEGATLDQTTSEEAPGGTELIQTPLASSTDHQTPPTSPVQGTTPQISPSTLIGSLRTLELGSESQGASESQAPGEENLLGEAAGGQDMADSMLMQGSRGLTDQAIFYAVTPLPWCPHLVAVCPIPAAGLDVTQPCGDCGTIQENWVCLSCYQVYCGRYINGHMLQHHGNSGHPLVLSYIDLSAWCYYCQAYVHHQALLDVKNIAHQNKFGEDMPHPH
# [2] = biological target: Aurora kinase B (Homo sapiens) (UniProt Q96GD4); assay: Inhibition of Aurora B kinase (unknown origin) at 10 uM in presence of ATP incubated for 30 min followed by addition of kinase glo-reagent measured after 20 mins by Luminescence based plate reader assay relative to control; conditions: time 50.0 min
# Aurora kinase B (Homo sapiens), sequence (Q96GD4 whole entry): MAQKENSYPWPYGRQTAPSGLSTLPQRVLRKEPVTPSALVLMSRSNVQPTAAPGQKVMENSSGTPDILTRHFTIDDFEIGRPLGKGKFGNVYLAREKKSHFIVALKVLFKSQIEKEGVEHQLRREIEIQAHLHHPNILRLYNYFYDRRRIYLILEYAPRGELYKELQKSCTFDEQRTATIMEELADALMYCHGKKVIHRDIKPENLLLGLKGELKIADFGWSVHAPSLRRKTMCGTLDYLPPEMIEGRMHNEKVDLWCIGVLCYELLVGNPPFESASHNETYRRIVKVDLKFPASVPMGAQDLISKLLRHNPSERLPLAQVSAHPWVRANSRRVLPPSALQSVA
# [3] = biological target: 3',5'-cyclic-AMP phosphodiesterase 4C (Homo sapiens) (UniProt Q08493); assay: Inhibition of PDE4C1 (unknown origin) at 10 uM incubated for 60 mins followed by addition of binding agent and measured after 20 mins by Fluorescence Polarization assay relative to control; conditions: time 80.0 min
# 3',5'-cyclic-AMP phosphodiesterase 4C (Homo sapiens), sequence (Q08493 whole entry): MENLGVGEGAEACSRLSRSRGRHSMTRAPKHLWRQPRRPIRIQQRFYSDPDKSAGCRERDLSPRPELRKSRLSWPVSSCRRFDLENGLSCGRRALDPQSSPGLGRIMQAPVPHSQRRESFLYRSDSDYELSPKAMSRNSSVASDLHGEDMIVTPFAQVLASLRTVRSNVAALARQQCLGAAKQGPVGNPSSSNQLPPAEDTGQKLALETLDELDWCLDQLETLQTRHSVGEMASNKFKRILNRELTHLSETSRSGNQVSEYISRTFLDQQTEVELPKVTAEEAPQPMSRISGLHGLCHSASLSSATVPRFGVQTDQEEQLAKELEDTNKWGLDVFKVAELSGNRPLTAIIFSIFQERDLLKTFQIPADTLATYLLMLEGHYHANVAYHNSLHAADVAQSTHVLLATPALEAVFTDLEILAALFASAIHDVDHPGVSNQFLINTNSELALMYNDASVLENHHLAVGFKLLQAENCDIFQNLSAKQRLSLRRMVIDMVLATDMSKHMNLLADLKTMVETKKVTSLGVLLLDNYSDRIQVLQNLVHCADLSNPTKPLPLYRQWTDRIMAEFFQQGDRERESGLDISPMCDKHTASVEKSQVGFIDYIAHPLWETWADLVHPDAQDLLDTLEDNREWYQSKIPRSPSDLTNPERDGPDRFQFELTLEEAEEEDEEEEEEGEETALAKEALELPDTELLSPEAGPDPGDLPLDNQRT
# [4] = biological target: T2, {'v': 'CYP1A2', 'o': 'p', 'q': 'Inhibition of CYP1A2 (unknown origin)'} (Homo sapiens, UniProt P05177); assay: Inhibition of CYP1A2 (unknown origin) at 10 uM pre-incubated for 30 min followed by addition of NADPH and measured after 30 min by Luminescence based plate reader method relative to control; assay type: ADME; conditions: time 60 min
# T2 sequence (P05177 whole entry): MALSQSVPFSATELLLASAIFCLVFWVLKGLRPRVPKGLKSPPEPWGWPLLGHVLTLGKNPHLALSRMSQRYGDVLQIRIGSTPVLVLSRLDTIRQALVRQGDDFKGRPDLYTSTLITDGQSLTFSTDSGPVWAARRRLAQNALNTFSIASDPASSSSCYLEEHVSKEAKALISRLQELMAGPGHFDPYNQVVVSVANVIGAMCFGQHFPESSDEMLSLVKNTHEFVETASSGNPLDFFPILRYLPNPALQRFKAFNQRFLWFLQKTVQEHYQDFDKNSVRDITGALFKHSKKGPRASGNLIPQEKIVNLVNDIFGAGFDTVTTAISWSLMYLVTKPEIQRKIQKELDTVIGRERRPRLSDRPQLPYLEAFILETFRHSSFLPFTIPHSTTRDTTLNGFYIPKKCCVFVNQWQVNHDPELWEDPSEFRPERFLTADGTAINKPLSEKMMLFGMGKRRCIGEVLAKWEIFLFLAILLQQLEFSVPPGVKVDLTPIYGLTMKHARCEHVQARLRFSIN
# [5] = biological target: T3, NAD-dependent protein deacetylase sirtuin-7 (Homo sapiens) (UniProt Q9NRC8); assay: Inhibition of human recombinant SIRT7 at 10 uM incubated for 20 mins followed by mixing and measure after 30 mins by Luminescence assay relative to control; conditions: time 50.0 min
# T3 sequence (whole entry): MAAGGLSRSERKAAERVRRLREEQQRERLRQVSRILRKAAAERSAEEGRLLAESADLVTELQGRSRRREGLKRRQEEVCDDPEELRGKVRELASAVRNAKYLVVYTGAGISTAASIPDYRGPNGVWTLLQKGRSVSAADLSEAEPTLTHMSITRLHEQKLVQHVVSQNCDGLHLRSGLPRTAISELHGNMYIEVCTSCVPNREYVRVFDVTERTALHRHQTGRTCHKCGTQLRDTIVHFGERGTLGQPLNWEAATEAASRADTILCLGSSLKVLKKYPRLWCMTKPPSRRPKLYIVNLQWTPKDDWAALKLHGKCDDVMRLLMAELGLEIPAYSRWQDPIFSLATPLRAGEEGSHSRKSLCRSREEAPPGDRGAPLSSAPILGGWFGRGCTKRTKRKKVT
# [6] = biological target: {'v': 'CYP2C19', 'o': 'p', 'q': 'Inhibition of CYP2C19 (unknown origin)'} (Homo sapiens, UniProt P33261); assay: Inhibition of CYP2C19 (unknown origin) at 10 uM pre-incubated for 30 min followed by addition of NADPH and measured after 30 min by Luminescence based plate reader method relative to control; assay type: ADME; conditions: time 60 min
# {'v': 'CYP2C19', 'o': 'p', 'q': 'Inhibition of CYP2C19 (unknown origin)'}, sequence (P33261 whole entry): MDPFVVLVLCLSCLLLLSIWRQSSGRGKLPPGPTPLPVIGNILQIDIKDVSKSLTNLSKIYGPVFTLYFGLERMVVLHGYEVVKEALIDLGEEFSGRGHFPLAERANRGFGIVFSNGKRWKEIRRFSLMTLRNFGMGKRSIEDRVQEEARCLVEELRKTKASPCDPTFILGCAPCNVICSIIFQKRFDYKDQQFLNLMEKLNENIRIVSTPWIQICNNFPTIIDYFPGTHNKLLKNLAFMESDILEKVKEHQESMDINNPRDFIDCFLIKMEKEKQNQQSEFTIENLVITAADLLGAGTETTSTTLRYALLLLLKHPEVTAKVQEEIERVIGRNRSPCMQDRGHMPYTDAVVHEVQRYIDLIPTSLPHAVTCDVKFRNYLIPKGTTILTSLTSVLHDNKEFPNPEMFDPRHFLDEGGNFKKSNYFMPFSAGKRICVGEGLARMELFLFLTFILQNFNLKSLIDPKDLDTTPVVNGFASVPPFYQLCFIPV
# HEK293 = assay: Cytotoxicity against HEK293 cells at 10 uM measured after 24 to 48 hrs by Cell-titer glo assay relative to control; assay type: cell-based; conditions: human, hek293, 10 µM, time 24-48 hrs
# [7] = biological target: {'v': 'CYP2D6', 'o': 'p', 'q': 'Inhibition of CYP2D6 (unknown origin)'} (Homo sapiens, UniProt P10635); assay: Inhibition of CYP2D6 (unknown origin) at 10 uM pre-incubated for 30 min followed by addition of NADPH and measured after 30 min by Luminescence based plate reader method relative to control; assay type: ADME; conditions: time 60 min
# {'v': 'CYP2D6', 'o': 'p', 'q': 'Inhibition of CYP2D6 (unknown origin)'}, sequence (P10635 whole entry): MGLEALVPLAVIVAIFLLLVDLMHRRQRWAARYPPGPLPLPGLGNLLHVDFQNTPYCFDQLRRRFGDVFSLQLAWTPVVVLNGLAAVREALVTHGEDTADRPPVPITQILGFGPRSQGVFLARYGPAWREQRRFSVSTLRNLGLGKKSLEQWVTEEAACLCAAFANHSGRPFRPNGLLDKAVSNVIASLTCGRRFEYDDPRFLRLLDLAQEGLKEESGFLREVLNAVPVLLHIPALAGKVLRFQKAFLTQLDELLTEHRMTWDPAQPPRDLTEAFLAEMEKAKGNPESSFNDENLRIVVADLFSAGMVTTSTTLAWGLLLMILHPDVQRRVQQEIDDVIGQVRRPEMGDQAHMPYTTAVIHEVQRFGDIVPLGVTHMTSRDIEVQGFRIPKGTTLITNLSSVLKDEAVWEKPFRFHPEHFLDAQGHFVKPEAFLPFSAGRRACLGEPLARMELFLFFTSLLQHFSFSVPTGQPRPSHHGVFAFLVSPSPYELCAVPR
# [8] = biological target: Histone deacetylase 4 (Homo sapiens) (UniProt P56524); assay: Inhibition on human recombinant HDAC4 at 10 uM measured after 20 min by luminescence glo assay
# Histone deacetylase 4 (Homo sapiens), sequence (P56524 whole entry): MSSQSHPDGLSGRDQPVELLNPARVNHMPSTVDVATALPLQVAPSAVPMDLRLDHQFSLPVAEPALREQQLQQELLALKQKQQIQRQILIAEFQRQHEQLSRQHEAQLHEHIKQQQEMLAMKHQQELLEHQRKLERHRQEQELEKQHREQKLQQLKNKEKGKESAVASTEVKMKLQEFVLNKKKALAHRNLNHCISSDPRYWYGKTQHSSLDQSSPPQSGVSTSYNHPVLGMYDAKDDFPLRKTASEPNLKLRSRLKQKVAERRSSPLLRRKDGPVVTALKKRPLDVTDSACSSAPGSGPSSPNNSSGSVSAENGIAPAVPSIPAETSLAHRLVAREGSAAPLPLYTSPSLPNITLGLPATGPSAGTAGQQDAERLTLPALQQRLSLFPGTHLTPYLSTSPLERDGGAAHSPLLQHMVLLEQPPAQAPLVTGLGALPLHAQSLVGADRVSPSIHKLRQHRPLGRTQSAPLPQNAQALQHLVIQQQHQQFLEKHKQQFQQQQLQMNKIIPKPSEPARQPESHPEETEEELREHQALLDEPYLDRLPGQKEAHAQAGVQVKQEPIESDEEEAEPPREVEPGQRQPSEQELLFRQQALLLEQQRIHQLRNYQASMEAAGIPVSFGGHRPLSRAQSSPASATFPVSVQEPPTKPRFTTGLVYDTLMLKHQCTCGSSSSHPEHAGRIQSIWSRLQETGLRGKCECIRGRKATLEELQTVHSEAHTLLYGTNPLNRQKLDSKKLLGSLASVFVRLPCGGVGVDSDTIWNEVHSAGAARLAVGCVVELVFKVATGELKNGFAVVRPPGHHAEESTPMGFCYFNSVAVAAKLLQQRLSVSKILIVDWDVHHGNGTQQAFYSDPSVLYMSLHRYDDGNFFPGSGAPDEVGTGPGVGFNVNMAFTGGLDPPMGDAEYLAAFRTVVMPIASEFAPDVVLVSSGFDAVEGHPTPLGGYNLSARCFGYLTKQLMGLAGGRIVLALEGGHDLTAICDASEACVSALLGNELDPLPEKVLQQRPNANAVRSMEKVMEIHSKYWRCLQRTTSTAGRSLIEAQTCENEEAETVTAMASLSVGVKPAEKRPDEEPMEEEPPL
SMILES,inhibition [1] [%],inhibition [2] [%],inhibition [3] [%],"inhibition at 0.5 h, 10 µM [4] [%]",inhibition [5] [%],"inhibition at 0.5 h, 10 µM [6] [%]",Activity (HEK293) [%],"inhibition at 0.5 h, 10 µM [7] [%]",inhibition [8] [%]
O=C(CCNC(=O)c1cccn(Cc2ccc(F)c(F)c2)c1=O)Nc1ccc2c(c1)/C(=C/c1cnc[nH]1)C(=O)N2,< 30,< 20,< 30,> 90,< 30,> 90,< 25,> 90,< 30
Cc1ccc(C(=O)NCC(=O)Nc2ccc3c(c2)/C(=C/c2cnc[nH]2)C(=O)N3)c(=O)n1Cc1ccc(F)c(F)c1,< 30,< 20,< 30,> 90,< 30,> 90,< 25,> 90,< 30
O=C1Nc2ccc(NC(=O)[C@H](NC(=O)c3cccn(Cc4ccc(F)c(F)c4)c3=O)c3ccccc3)cc2/C1=C/c1cnc[nH]1 (stereo in doubt),< 30,< 20,< 30,–,< 30,–,< 25,–,< 30
Cc1c(Br)cc(C(=O)N[C@@H](C(=O)Nc2ccc3c(c2)/C(=C/c2cnc[nH]2)C(=O)N3)c2ccccc2)c(=O)n1Cc1ccc(F)c(F)c1,< 30,< 20,< 30,< 45,< 30,< 45,< 25,< 45,< 30
